Experimental data taken from patent US11691962B2 (eXIthera Pharmaceuticals, Inc., priority 2018, dated 2023).
≈ marks a conversion by molar mass, not a printed value.

What was measured:
Thrombin = Thrombin (Homo sapiens (Human), UniProt P00734); experiment: Dose response assay for protease inhibitors: thrombin; format: biochemical; details: selectivity, thrombin over Factor XIa
Summary of the method: (§1)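 Fluorogenic AMC-peptide cleavage in 20 mM Hepes pH 7.4, 150 mM NaCl, 0.02% Tween 20; 100 μM stock substrate dilution (Glp-Pro-Arg-AMC for thrombin/trypsin; Pro-Phe-Arg-AMC or Boc-Leu-Gly-Arg-AMC for Factor Xa). Enzyme diluted to 0.5 nM, added last to two-fold compound series; kinetic read at 30° C, 30 min (Factor Xa 60 min); IC50 fitted.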

[1] = Aqueous solubility in PBS by HPLC-UV/VIS; format: physicochemical; details: phosphate buffered saline, aqueous buffer, kinetic from dmso stock; PBS pH 7.4, 2% DMSO, 24 h at room temperature
Method: The following procedure was used to determine the aqueous solubility of a test compound in phosphate buffered saline (PBS-NaCl 137 mM, KCl 2.7 mM, Na2HPO4 8.1 mM, KH2PO4 1.5 mM, pH 7.4) in 96-well plate format by HPLC-UV/VIS analysis. The test compound was prepared at 200 μM in PBS from a 10 mM DMSO stock solution. The final DMSO concentration was 2%. The PBS buffer samples were mixed thoroughly followed by incubation at room temperature for 24 h. At the end of the incubation, the PBS buffer samples were centrifuged and supernatants analyzed by HPLC. The aqueous solubility (μM) of the test compound in PBS was determined by comparing the peak area of the principal peak in the calibration standard (200 μM) with the peak area of the corresponding peak in each of the PBS samples. The range of the assay was approximately 0.5 μM to 200 μM. The reference compounds used in each assay were metoprolol, rifampicin, ketoconazole, phenytoin, haloperidol, simvastatin, diethylstilbestrol, and tamoxifen ranking from fully soluble (200 μM) to poorly soluble (<1 μM).

Trypsin = experiment: Dose response assay for protease inhibitors: trypsin; format: biochemical; details: selectivity, trypsin over Factor XIa
Summary of the method: as §1

[2] = Metabolic stability in dog hepatocytes; format: in vitro ADME; details: pooled cryopreserved hepatocytes; beagle dog hepatocytes, 2 μM compound; read-out: Dog Hepatocyte Stability (t1/2)
Method: The following procedure was used to determine the stability of test compounds in beagle dog hepatocytes in a 96-well plate format. The test compounds, including the controls, imipramine and 7-ethoxycoumarin, were dissolved at 10 mM in DMSO, followed by further 5-fold dilution with DMSO to 2 mM. Pooled cryopreserved beagle dog hepatocytes were thawed and transferred into complete medium. Cells were gently centrifuged (700 rpm for 5 min) and the pellet rinsed with KHB (Krebs Henseleit buffer). Cells were resuspended, counted using Trypan blue, and adjusted to 1 million cells/mL in KHB buffer. The 2 mM compound stock solutions were diluted 10-fold with acetonitrile, followed by a further 50-fold dilution with KHB buffer. 200 μL of these compound solutions were transferred to 96-well polypropylene assay plates and an equal volume of the hepatocyte solution was added and mixed to initiate the reaction (final assay concentrations were 2 μM compound and 500,000 cells/mL). Assay plates were incubated at 37° C. in 5% CO2 with gentle agitation. 50 μL aliquots were removed at multiple time points out to 180 minutes and quenched with 6 volumes of cold acetonitrile (containing 250 ng/mL of carbutamide and chrysin as internal standards) to terminate the reaction and precipitate protein. Quenched samples were maintained on ice. The quenched samples were centrifuged at 2000×g (3100 rpm) for 10 minutes at 4° C. 50 μL aliquots of the supernatants were removed and diluted with 100 μL Milli-Q water to reduce the % organic content prior to bioanalysis by LC-MS/MS. Peak areas corresponding to the test compound were recorded. The compound remaining was calculated by comparing the peak area at each time point to time zero. Data were analyzed and results were calculated using Microsoft Excel 2010.

Factor Xa = Factor Xa (Homo sapiens (Human), UniProt P00742); experiment: Dose response assay for protease inhibitors: Factor Xa; format: biochemical; details: selectivity, Factor Xa over Factor XIa
Sequence of Factor Xa (P00742 235-488): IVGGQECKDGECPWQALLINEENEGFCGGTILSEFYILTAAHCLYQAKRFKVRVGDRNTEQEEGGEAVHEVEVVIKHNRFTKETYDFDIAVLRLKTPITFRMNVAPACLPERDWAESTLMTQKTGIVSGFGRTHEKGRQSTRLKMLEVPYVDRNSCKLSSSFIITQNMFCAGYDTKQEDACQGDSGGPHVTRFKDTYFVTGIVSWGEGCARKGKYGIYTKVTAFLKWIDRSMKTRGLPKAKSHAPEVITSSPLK
Sequence of Factor Xa (P00742 41-179 partner): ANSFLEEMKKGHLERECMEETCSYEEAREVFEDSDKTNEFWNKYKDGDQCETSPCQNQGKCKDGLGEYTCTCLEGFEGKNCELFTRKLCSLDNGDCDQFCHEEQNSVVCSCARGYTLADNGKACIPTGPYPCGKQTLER
Summary of the method: as §1

| Structure (SMILES) | Ratio: Thrombin/FXIa (Thrombin) | solubility at 24 h [1] | half-life at 2 μM [2] | Ratio: FXa/FXIa (Factor Xa) | Ratio: Trypsin/FXIa (Trypsin) |
| --- | --- | --- | --- | --- | --- |
| CC[C@@H](NC(=O)N1C(=O)[C@H](Cc2cc(C)nc(N)c2)[C@H]1C(=O)N(C)c1nccn1C)c1cccc(Cl)c1 [Compound 1-43, (2S,3R)-3-((2-amino-6-methylpyridin-4-yl)methyl)-N2-(1-methyl-1H-imidazol-2-yl)-N1-((R)-1-(3-chlorophenyl)propyl)-N2-methyl-4-oxoazetidine-1,2-dicarboxamide] | H (“H” indicates 101-1000) | > 100 µM | 2.02 to 4 h | I (“I” indicates > 500) | G (“G” indicates 1-100) |
| CC[C@@H](NC(=O)N1C(=O)[C@H](Cc2cc(C)nc(NC)c2)[C@H]1C(=O)N(C)c1nccn1C)c1ccccc1 [Compound 1-45, (2S,3R)-3-((2-methylamino-6-methylpyridin-4-yl)methyl)-N2-(1-methyl-1H-imidazol-2-yl)-N1-((R)-1-phenylpropyl)-N2-methyl-4-oxoazetidine-1,2-dicarboxamide] | H (“H” indicates 101-1000) | > 100 µM | 2.02 to 4 h | I (“I” indicates > 500) | G (“G” indicates 1-100) |
| C[C@@H](NC(=O)N1C(=O)[C@H](Cc2ccnc(N)c2)[C@H]1C(=O)N(C)c1ccn(C)n1)C1CCCCC1 [Compound 1-50, (2S,3R)-3-((2-aminopyridin-4-yl)methyl)-N2-(1-methyl-1H-pyrazol-3-yl)-N1-((R)-1-cyclohexylethyl)-N2-methyl-4-oxoazetidine-1,2-dicarboxamide] | H (“H” indicates 101-1000) | > 100 µM | 1.02 to 2 h | I (“I” indicates > 500) | G (“G” indicates 1-100) |
| CC[C@@H](NC(=O)N1C(=O)[C@H](Cc2ccnc(N)c2)[C@H]1C(=O)N(C)c1nccn1C)C1CCCCC1 [Compound 1-55, (2S,3R)-3-((2-aminopyridin-4-yl)methyl)-N2-(1-methyl-1H-imidazol-2-yl)-N1-((R)-1-cyclohexylpropyl)-N2-methyl-4-oxoazetidine-1,2-dicarboxamide] | H (“H” indicates 101-1000) | > 100 µM | 1.02 to 2 h | I (“I” indicates > 500) | G (“G” indicates 1-100) |
| CN(C(=O)[C@@H]1[C@@H](Cc2ccnc(N)c2)C(=O)N1C(=O)N[C@@H](C1CCCCC1)C1CC1)c1ccn(C)n1 [Compound 1-58, (2S,3R)-3-((2-aminopyridin-4-yl)methyl)-N2-(1-methyl-1H-pyrazol-3-yl)-N1-((R)-cyclohexyl-cyclopropylmethyl)-N2-methyl-4-oxoazetidine-1,2-dicarboxamide] | H (“H” indicates 101-1000) | > 100 µM | < 1 h | I (“I” indicates > 500) | G (“G” indicates 1-100) |
| CC[C@@H](NC(=O)N1C(=O)[C@H](Cc2ccnc(N)c2)[C@H]1C(=O)N(C)c1ccnn1C)C1CCCCC1 [Compound 1-63, (2S,3R)-3-((2-aminopyridin-4-yl)methyl)-N2-(1-methyl-1H-pyrazol-5-yl)-N1-((R)-1-cyclohexylpropyl)-N2-methyl-4-oxoazetidine-1,2-dicarboxamide] | I (“I” indicates > 500) | > 100 µM | < 1 h | I (“I” indicates > 500) | G (“G” indicates 1-100) |
| CC[C@@H](NC(=O)N1C(=O)[C@H](Cc2cc(C)nc(N)c2)[C@H]1C(=O)N(C)c1ccnn1C)C1CCCCC1 [Compound 1-67, (2S,3R)-3-((2-amino-6-methylpyridin-4-yl)methyl)-N2-(1-methyl-1H-pyrazol-5-yl)-N1-((R)-1-cyclohexylpropyl)-N2-methyl-4-oxoazetidine-1,2-dicarboxamide] | I (“I” indicates > 500) | > 100 µM | 1.02 to 2 h | I (“I” indicates > 500) | G (“G” indicates 1-100) |
| CC[C@@H](NC(=O)N1C(=O)[C@H](Cc2ccnc(N)c2)[C@H]1C(=O)N(C)c1nccn1C)c1cccc(C)c1 [Compound 1-80, (2S,3R)-3-((2-aminopyridin-4-yl)methyl)-N2-(1-methyl-1H-imidazol-2-yl)-N1-((R)-1-(3-methylphenyl)propyl)-N2-methyl-4-oxoazetidine-1,2-dicarboxamide] | H (“H” indicates 101-1000) | > 100 µM | 2.02 to 4 h | I (“I” indicates > 500) | G (“G” indicates 1-100) |

Continued, in another order:

| Ratio: Thrombin/FXIa (Thrombin) | solubility at 24 h [1] | half-life at 2 μM [2] | Ratio: FXa/FXIa (Factor Xa) | Structure (SMILES) | Ratio: Trypsin/FXIa (Trypsin) |
| --- | --- | --- | --- | --- | --- |
| H (“H” indicates 101-1000) | > 100 µM | 1.02 to 2 h | I (“I” indicates > 500) | CC[C@@H](NC(=O)N1C(=O)[C@H](Cc2cc(C)nc(NC)c2)[C@H]1C(=O)N(C)c1nccn1C)c1cccc(Cl)c1 [Compound 1-46, (2S,3R)-3-((2-methylamino-6-methylpyridin-4-yl)methyl)-N2-(1-methyl-1H-imidazol-2-yl)-N1-((R)-1-(3-chlorophenyl)propyl)-N2-methyl-4-oxoazetidine-1,2-dicarboxamide] | G (“G” indicates 1-100) |
| H (“H” indicates 101-1000) | > 100 µM | 1.02 to 2 h | I (“I” indicates > 500) | CC[C@@H](NC(=O)N1C(=O)[C@H](Cc2ccnc(N)c2)[C@H]1C(=O)N(C)c1ccn(C)n1)C1CCCCC1 [Compound 1-47, (2S,3R)-3-((2-aminopyridin-4-yl)methyl)-N2-(1-methyl-1H-pyrazol-3-yl)-N1-((R)-1-cyclohexylpropyl)-N2-methyl-4-oxoazetidine-1,2-dicarboxamide] | G (“G” indicates 1-100) |
| H (“H” indicates 101-1000) | > 100 µM | > 4 h | I (“I” indicates > 500) | CC[C@@H](NC(=O)N1C(=O)[C@H](Cc2cc(C)nc(N)c2)[C@H]1C(=O)N(C)c1nccn1C)c1ccccc1 [Compound 1-51, (2S,3R)-3-((2-amino-6-methylpyridin-4-yl)methyl)-N2-(1-methyl-1H-imidazol-2-yl)-N1-((R)-1-phenylpropyl)-N2-methyl-4-oxoazetidine-1,2-dicarboxamide] | G (“G” indicates 1-100) |
| H (“H” indicates 101-1000) | 10 to 100 µM (≈ 4.96 to 49.6 µg/mL) | < 1 h | I (“I” indicates > 500) | CC(C)[C@@H](NC(=O)N1C(=O)[C@H](Cc2ccnc(N)c2)[C@H]1C(=O)N(C)c1ccn(C)n1)C1CCCCC1 [Compound 1-57, (2S,3R)-3-((2-aminopyridin-4-yl)methyl)-N2-(1-methyl-1H-pyrazol-3-yl)-N1-((R)-1-cyclohexyl-2-methylpropyl)-N2-methyl-4-oxoazetidine-1,2-dicarboxamide] | G (“G” indicates 1-100) |
| I (“I” indicates > 500) | > 100 µM | < 1 h | I (“I” indicates > 500) | CC[C@@H](NC(=O)N1C(=O)[C@H](Cc2cc(C)nc(NC)c2)[C@H]1C(=O)N(C)c1ccnn1C)C1CCCCC1 [Compound 1-62, (2S,3R)-3-((2-methylamino-6-methylpyridin-4-yl)methyl)-N2-(1-methyl-1H-pyrazol-5-yl)-N1-((R)-1-cyclohexylpropyl)-N2-methyl-4-oxoazetidine-1,2-dicarboxamide] | G (“G” indicates 1-100) |
